# Test results: paper PMC6925188, “PBRM1 acts as a p53 lysine-acetylation reader to suppress renal tumor growth” (Nature Communications, 2019)
# How the values were obtained:
# PBRM1-p53 interaction = assay: Co-immunoprecipitation of Flag-PBRM1 and Myc-p53 (anti-Flag M2) in H1299 cells; type: cell-based
# Text: Fig. 1 PBRM1 and p53 display a physical association that is enhanced after DNA damage. a U2OS cells (left) and HEK293T cells (right) were transfected with vector or Flag-PBRM1 and harvested for immunoprecipitation with Flag-M2 beads and elution with 3X Flag peptide. […] Lysates were subjected to immunoprecipitation with Flag-M2 beads. […] Lysates were immunoprecipitated with p53 antibody. The bound PBRM1 and p53 were examined by immunoblots. Source data are provided as a Source Data file.
# For anti-Flag immunoprecipitation, cell pellets harvested from one 10 cm culture dish were resuspended in 500 µl hypotonic buffer (10 mM Tris-HCl, pH 8.0, 1.5 mM MgCl2, 10 mM KCl) with protease and phosphatase inhibitors, 2 μM TSA and 10 mM NAM, and samples were incubated on ice for 15 min. Twenty-five microliters of Triton X-100 was added and samples were vortexed for 10 s. After centrifuging for 30 s at 14,000 × g, supernatants were removed and pellets were resuspended in 100 µl hypertonic buffer (20 mM Tris-HCl pH 8.0, 420 mM KCl, 1.5 mM MgCl2, 20% (v/v) glycerol) with protease and phosphatase inhibitors, 2 μM TSA and 10 mM NAM and vortexed for 10 s. Pellets were incubated on ice for 40 min and vortexed for 15 s every 10 min. After centrifuging for 10 min at 14,000 × g, supernatants were collected and diluted with 300 µl EBC buffer (50 mM Tris-HCl (pH 7.5), 120 mM NaCl, 0.5% NP-40) with protease and phosphatase inhibitors, 2 μM TSA and 10 mM NAM. […] Beads were washed four times with EBC buffer and eluted with 3X Flag peptide (F4799, Sigma-Aldrich) overnight at 4 °C. The input and Flag-elution were analyzed by SDS-PAGE and immunoblot.
# Supplementary Figure 2. […]
# a. Vectors, Flag-PBRM1 or Myc-p53 were transfected into H1299 cells as indicated, and treated with 5 µM nicotinamide or vehicle. Lysates were used for anti-Flag immunoprecipitation and 3X Flag peptide elution. The inputs and eluates were immunoblotted with the indicated antibodies. […]
# Flag-PBRM1, wildtype or K382Q mutated Myc-p53 were transfected into H1299 cells with indicated combinations. Lysates were used for anti-Flagimmunoprecipitation followed by Flag peptide elution. […]
# HCT116 cells = assay: RT-qPCR of p53 targets, HCT116 parental and PBRM1 KO cells; type: cell-based; set-up: PUMA expression / PIDD expression: reference not given here; details: 50 μM, 24 h
# Procedure: Total RNA was extracted from cells using the RNeasy Plus Mini Kit (74136, Qiagen), and the concentration was measured using the NanoDrop ND-1000 system (Thermo Scientific). Reverse transcription was performed using the First Strand cDNA Synthesis Kit (NP100042, Origen) with 0.5 µg total RNA. Real-time PCR was performed with Maxima SYBR Green qPCR Master Mix (K0253, Thermo Scientific) using the Roche LightCycler 480. The primers used for real-time PCR are listed as follows: q-GAPDH-F: […], q-GAPDH-R: […], q-CDKN1A-F: […], q-CDKN1A-R: […], q-MDM2-F: […], q-MDM2-R: […], q-BAX-F: […], q-BAX-R: […], q-PUMA-F: […], q-PUMA-R: […], q-NOXA-F: […], q-NOXA-R: […], q-GADD45a-F: […], q-GADD45a-R: […], q-APAF1-F: […], q-APAF1-R: […], q-BAI1-F: […], q-BAI1-R: […], q-BCL2A1-F: […], q-BCL2A1-R: g[…], q-BTG2-F: […], q-BTG2-R: […], q-CDC25c-F: […], q-CDC25c-R: […], q-FAS-F: […], q-FAS-R: […], q-PIDD-F: […], q-PIDD-R: […], q-RPRM-F: […], q-RPRM-R: […], q-TNFRSF10B-F: […] and q-TNFRSF10B-R: […]. GAPDH was used as an internal control. Data are shown as mean ± SEM for three independent experiments.
# Supplementary Figure 4. PBRM1 is required for full p53 transcriptional activity.
# a, b. HCT116 parental and PBRM1 KO cells (combination of eight clones) were treated with
# (a). RNA was extracted and reverse transcribed from the indicated cells treated with 50 μM
# etoposide. […]
# p-values were calculated using the paired two -tailed Student’s t-test. c, d. […]
structure (smiles),measurement,setting,value
COc1cc([C@@H]2c3cc4c(cc3[C@@H](O[C@@H]3O[C@@H]5CO[C@@H](C)O[C@H]5[C@H](O)[C@H]3O)[C@H]3COC(=O)[C@H]23)OCO4)cc(OC)c1O [Etoposide],PBRM1 and exogenous p53 protein levels,"PBRM1-p53 interaction; H1299, etoposide 50 μM or bleomycin 10 μg/ml",neither the PBRM1 nor the exogenous p53 levels changed
same,PBRM1-p53 interaction,"PBRM1-p53 interaction; H1299 co-transfected with PBRM1 and p53, etoposide 50 μM",enhanced
same,APAF1 expression,"HCT116 cells; HCT116-PBRM1-KOs, assay 1",3.8371
same,BAX expression,"HCT116 cells; HCT116-PBRM1-KOs, assay 1",1.7963
same,BCL2A1 expression,"HCT116 cells; HCT116-PBRM1-KOs, assay 1",19.7667
same,BTG2 expression,"HCT116 cells; HCT116-PBRM1-KOs, assay 1",11.7942
same,CDKN1A expression,"HCT116 cells; HCT116-PBRM1-KOs, assay 1",22.8639
same,GADD45A expression,"HCT116 cells; HCT116-PBRM1-KOs, assay 1",3.9586
same,MDM2 expression,"HCT116 cells; HCT116-PBRM1-KOs, assay 1",3.9724
same,NOXA expression,"HCT116 cells; HCT116-PBRM1-KOs, assay 1",3.0525
same,PIDD expression,"HCT116 cells; HCT116-PBRM1-KOs, assay 1",2.3295
same,PUMA expression,"HCT116 cells; HCT116-PBRM1-KOs, assay 1",4.8793
same,RPRM expression,"HCT116 cells; HCT116-PBRM1-KOs, assay 1",2.5491
same,APAF1 expression,"HCT116 cells; HCT116-PBRM1-KOs, assay 2",1.6529
same,BAX expression,"HCT116 cells; HCT116-PBRM1-KOs, assay 2",2.3457
same,BCL2A1 expression,"HCT116 cells; HCT116-PBRM1-KOs, assay 2",6.9761
same,BTG2 expression,"HCT116 cells; HCT116-PBRM1-KOs, assay 2",7.21
same,CDKN1A expression,"HCT116 cells; HCT116-PBRM1-KOs, assay 2",14.0419
same,GADD45A expression,"HCT116 cells; HCT116-PBRM1-KOs, assay 2",2.1289
same,MDM2 expression,"HCT116 cells; HCT116-PBRM1-KOs, assay 2",5.9039
same,NOXA expression,"HCT116 cells; HCT116-PBRM1-KOs, assay 2",3.6808
same,PIDD expression,"HCT116 cells; HCT116-PBRM1-KOs, assay 2",1.4093
same,PUMA expression,"HCT116 cells; HCT116-PBRM1-KOs, assay 2",7.235
same,RPRM expression,"HCT116 cells; HCT116-PBRM1-KOs, assay 2",2.7797
same,APAF1 expression,"HCT116 cells; HCT116-PBRM1-KOs, assay 3",1.6644
same,BAX expression,"HCT116 cells; HCT116-PBRM1-KOs, assay 3",2.3134
same,BCL2A1 expression,"HCT116 cells; HCT116-PBRM1-KOs, assay 3",9.2884
same,BTG2 expression,"HCT116 cells; HCT116-PBRM1-KOs, assay 3",7.1602
same,CDKN1A expression,"HCT116 cells; HCT116-PBRM1-KOs, assay 3",10.4953
same,GADD45A expression,"HCT116 cells; HCT116-PBRM1-KOs, assay 3",3.1241
same,MDM2 expression,"HCT116 cells; HCT116-PBRM1-KOs, assay 3",5.945
same,NOXA expression,"HCT116 cells; HCT116-PBRM1-KOs, assay 3",3.6554
same,PIDD expression,"HCT116 cells; HCT116-PBRM1-KOs, assay 3",1.4897
same,PUMA expression,"HCT116 cells; HCT116-PBRM1-KOs, assay 3",3.2117
same,RPRM expression,"HCT116 cells; HCT116-PBRM1-KOs, assay 3",1.3828
same,APAF1 expression,"HCT116 cells; HCT116, assay 1",4.2871
same,BAX expression,"HCT116 cells; HCT116, assay 1",2.7702
same,BCL2A1 expression,"HCT116 cells; HCT116, assay 1",22.8639
same,BTG2 expression,"HCT116 cells; HCT116, assay 1",12.7286
same,CDKN1A expression,"HCT116 cells; HCT116, assay 1",28.6408
same,GADD45A expression,"HCT116 cells; HCT116, assay 1",4.4076
same,MDM2 expression,"HCT116 cells; HCT116, assay 1",4.6589
same,NOXA expression,"HCT116 cells; HCT116, assay 1",3.0738
same,PIDD expression,"HCT116 cells; HCT116, assay 1",3.0525
same,PUMA expression,"HCT116 cells; HCT116, assay 1",4.4076
same,RPRM expression,"HCT116 cells; HCT116, assay 1",3.6301
same,APAF1 expression,"HCT116 cells; HCT116, assay 2",2.1372
same,BAX expression,"HCT116 cells; HCT116, assay 2",2.6851
same,BCL2A1 expression,"HCT116 cells; HCT116, assay 2",13.3173
same,BTG2 expression,"HCT116 cells; HCT116, assay 2",8.1398
same,CDKN1A expression,"HCT116 cells; HCT116, assay 2",17.6304
same,GADD45A expression,"HCT116 cells; HCT116, assay 2",2.5584
same,MDM2 expression,"HCT116 cells; HCT116, assay 2",5.7624
same,NOXA expression,"HCT116 cells; HCT116, assay 2",3.8683
same,PIDD expression,"HCT116 cells; HCT116, assay 2",2.0705
same,PUMA expression,"HCT116 cells; HCT116, assay 2",5.3332
same,RPRM expression,"HCT116 cells; HCT116, assay 2",2.9362
same,APAF1 expression,"HCT116 cells; HCT116, assay 3",2.021
same,BAX expression,"HCT116 cells; HCT116, assay 3",2.7226
same,BCL2A1 expression,"HCT116 cells; HCT116, assay 3",11.9548
same,BTG2 expression,"HCT116 cells; HCT116, assay 3",8.4269
same,CDKN1A expression,"HCT116 cells; HCT116, assay 3",15.6707
same,GADD45A expression,"HCT116 cells; HCT116, assay 3",3.0105
same,MDM2 expression,"HCT116 cells; HCT116, assay 3",5.4264
same,NOXA expression,"HCT116 cells; HCT116, assay 3",4.6765
same,PIDD expression,"HCT116 cells; HCT116, assay 3",1.9453
same,PUMA expression,"HCT116 cells; HCT116, assay 3",3.1939
same,RPRM expression,"HCT116 cells; HCT116, assay 3",2.0097
